# US9493479B2 (Merck Sharp & Dohme Corp., priority 2013, dated 2016)
# Assays:
# HIV-1 (NL4-3 strain) = assay: ViKinG (Viral Kinetics GFP Reporter) assay for inhibition of HIV replication; format: cell-based; conditions: Human immunodeficiency virus 1, NL43; MT4-GFP cells infected with HIV-1 NL4-3; RPMI + 10% or 50% NHS (not given); infected cells at 48 h / 24 h
# From the text: The ViKinG (Viral Kinetics GFP Reporter) assay is an in vitro kinetic assay that employs the MT4-gag-GFP reporter cell line (Wang et al., “Assessment of the susceptibility of mutant HIV-1 to antiviral agents.” J Virological Methods 165:230-37 (2010)) to quantify the number of new cells infected in each round of replication. The purpose of the ViKinG assay is to identify agents that inhibit HIV progression. Briefly, HIV infection results in tat transactivation of the stably expressed HIV LTR promoter to drive gagGFP expression. Thus, an increase in the number of GFP-MT4 cells results following HIV infection.
# MT4-GFP cells (250,000 cells/m1) were bulk-infected with HIV-1 (NL4-3 strain) at low multiplicity of infection (MOT) in RPMI+10% FBS for 24 hours. Cells were then washed once in RPMI+10% FBS and resuspended RPMI+10% or 50% normal human serum (NHS). Test compounds were serial-diluted in DMSO on an ECHO® liquid handling platform (Labcyte Corp., Sunnyvale, Calif.), along with a triple drug control (integrase, protease and NNRTI compounds). The infected MT4-GFP cells were added to a 384-well poly-D-lysine coated black plate with clear bottom in which the diluted test compounds were placed. The cells were seeded at 8,000 cells per well and the final DMSO concentration was 0.4%. The infected cells (Green GFP cells) were quantified at both 24 and 48 hours post incubation using Acumen® eX3 (TTP Labtech Ltd., Hertfordshire, United Kingdom). Viral reproductive ratio (R0) was determined using the number of infected cells at 48 hours divided by the number of infected cells at 24 hours. Percent viral growth inhibition was calculated by [1−(R−Rtripledrug)/(RDMSO−Rtripledrug)]*100. Compound potency IP or IC50 was determined by a 4-parameter dose response curve analysis.
# WT-Integrase = target: T1, WT-Integrase (Human immunodeficiency virus type 1 group M subtype B, UniProt P04585); assay: InSTANT integrase DNA strand transfer functional assay; format: biochemical, HIV; conditions: SPA strand transfer, 15 minutes at 37° C.
# T1 construct: assembled PVT SPA beads with WT-Integrase and boitinylated DNA
# Method: InSTANT is an integrase DNA strand transfer functional assay used to determine potency of InSTIs, which was carried out as described below. 8 μl of SPA buffer (27.8 mM Hepes, 27.8 mM MgCl2, 111.1 μg/mL BSA, 5.56 mM βME, and 57.1 mM NaCl) containing 5 nM 3H-labeled target DNA (prepared separately) and 10 μl of assembled PVT SPA beads with WT-Integrase and boitinylated DNA (prepared separately) were added to the assay plate which contained 0.4 μl of test compound(s) or positive or negative control compound(s) per well. The assay plate was shaken for 1 minute on HT-91002 1.0 MM shaker and then was sealed and incubated for 15 minutes at 37° C. The assay reaction was quenched by adding 4 μl of 1.25 M EDTA to each well of the assay plate with mixing. After incubating the plate at room temperature for 1 hour, the quenched plate was spun at 200 g for 1 minute and read on TopCount (1 minute per well). Percent inhibition was calculated by [1−(Sample−Min)/(Max−Min)]*100. Compound potency IP or IC50 was determined by a 4-parameter dose response curve analysis.
SMILES,IC50 (HIV-1 (NL4-3 strain)),IC50 (WT-Integrase)
"CC(C)c1c(CNC(=O)OC(C)(C)C)n2c(c(O)c1=O)C(=O)N(Cc1ccc(F)c(Cl)c1)CC2 [Compound 31, tert-butyl((2-(3-chloro-4-fluorobenzyl)-9-hydroxy-7-isopropyl-1,8-dioxo-2,3,4,8-tetrahydro-1H-pyrido[1,2-a]pyrazin-6-yl)methyl)carbamate]",2610 nM,42 nM
"O=C1c2c(O)c(=O)c3c(n2CCN1Cc1ccc(F)c(Cl)c1)COCC=C3 [Compound 2, 9-(3-chloro-4-fluorobenzyl)-7-hydroxy-10,11-dihydro-1H-oxepino[4′,3′:5,6]pyrido[1,2-a]pyrazine-6,8(3H,9H)-dione]",76 nM,11 nM
"CC1CCN(C(=O)C(=O)N(C)C)Cc2c1c(=O)c(O)c1n2CCN(Cc2ccc(F)c(Cl)c2)C1=O (stereo not shown) [Compound 18, 2-(9-(3-chloro-4-fluorobenzyl)-7-hydroxy-5-methyl-6,8-dioxo-4,5,8,9,10,11-hexahydropyrazino[1′,2′:1,6]pyrido[2,3-c]azepin-2(1H,3H,6H)-yl)-N,N-dimethyl-2-oxoacetamide]",3660 nM,20 nM
CC1COCc2c1c(=O)c(O)c1n2CCN(Cc2ccc(F)c(Cl)c2)C1=O (stereo not shown) [Compound 25],351 nM,21 nM
CCC1COCc2c1c(=O)c(O)c1n2CCN(Cc2ccc(F)c(Cl)c2)C1=O (stereo not shown) [Compound 7],461 nM,13 nM
